Structures are written as SMILES.

The CC50 is the concentration giving 50% cytotoxicity. The term inhibition denotes the relative decrease from the control value, in per cent.

A short description of one series: in vitro. The note with it: human, uninfected MT-4 cells, CC50 (nM), same protocol as Test A, CellTiter-Glo. Put shortly: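 Cytoprotection read-out: CellTiter-Glo chemiluminescence after 5 days at 37 °C of HIV-IIIb-infected MT-4 cells (m.o.i. 0.003) with compound in 10-point 3-fold dilutions, quadruplicate, 10% FBS. Cytotoxicity (CC50) measured identically without virus.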

A further series deals with HIV-IIIb. The series can be described thus: Test A: Antiviral assay in MT4 cells. The format is cell-based, HIV-1. The note with it: Human immunodeficiency virus 1, IIIB, MT4, 120 h, read-out: % inhibition at 2 μM, percent inhibition of virus-induced cell killing, from dose response curve at 2 uM drug; MT-4 cells infected with HIV-IIIb, 5 days, CellTiter-Glo.

Consider `NC(=O)c1cc(-c2cccnc2[C@H](Cc2cc(F)cc(F)c2)NC(=O)Cn2c(=O)[nH]c3cc(Cl)c(Cl)cc32)ccc1F` [Example 309, (S)-5-(2-(1-(2-(5,6-dichloro-2-oxo-2,3-dihydro-1H-benzo[d]imidazol-1-yl)acetamido)-2-(3,5-difluorophenyl)ethyl)pyridin-3-yl)-2-fluorobenzamide], for which the CC50 at 5 days in the series “in vitro” came out at 12000 nM. Besides, the inhibition at 2 µM in the series on HIV-IIIb amounted to 9%.
For `NC(=O)c1cc(-c2cccnc2[C@H](Cc2cc(F)cc(F)c2)NC(=O)Cc2c[nH]c3ccc(O)cc23)ccn1` [Example 310C, (S)-2-(2-(3,5-difluorophenyl)-1-(2-(5-hydroxy-1H-indol-3-yl)acetamido)ethyl)-3,4′-bipyridine-2′-carboxamide] the same measures were above 53000 nM and 97%.
The compound `NC(=O)c1cc(-c2cccnc2[C@H](Cc2cc(F)cc(F)c2)NC(=O)Cn2cc(C(N)=O)c(C(F)(F)F)n2)ccc1F` [Example 312, (S)-1-(2-(1-(3-(3-carbamoyl-4-fluorophenyl)pyridin-2-yl)-2-(3,5-difluorophenyl)ethylamino)-2-oxoethyl)-3-(trifluoromethyl)-1H-pyrazole-4-carboxamide] yielded a half-maximal cytotoxic concentration (CC50) at 5 days in the series “in vitro” above 53200 nM. The inhibition at 2 µM in the series with HIV-IIIb amounted to 2%.
For `NC(=O)c1cccc(-c2cncnc2[C@@H](Cc2cc(F)cc(F)c2)NC(=O)Cc2c[nH]c3ccc(O)cc23)c1` [Example 313, (R)-3-(4-(2-(3,5-difluorophenyl)-1-(2-(5-hydroxy-1H-indol-3-yl)acetamido)ethyl)pyrimidin-5-yl)benzamide] the same measures were above 53200 nM and 14%.
For `CCNCc1cn(CC(=O)N[C@@H](Cc2cc(F)cc(F)c2)c2ncccc2-c2ccc(F)c(C(N)=O)c2)nc1C(F)(F)F` [Example 314, (S)-5-(2-(2-(3,5-difluorophenyl)-1-(2-(4-((ethylamino)methyl)-3-(trifluoromethyl)-1H-pyrazol-1-yl)acetamido)ethyl)pyridin-3-yl)-2-fluorobenzamide], in that order: 23600 nM and 3%.
Take `NC(=O)c1cccc(-c2cccnc2[C@H](Cc2cc(F)cc(F)c2)NC(=O)Cn2c(C(F)(F)F)nc3ccc(OC(F)(F)F)cc32)c1` [Example 315, (S)-3-(2-(2-(3,5-difluorophenyl)-1-(2-(6-(trifluoromethoxy)-2-(trifluoromethyl)-1H-benzo[d]imidazol-1-yl)acetamido)ethyl)pyridin-3-yl)benzamide]: half-maximal cytotoxicity in the series “in vitro” (CC50 at 5 days) was put at 47200 nM. Further, in the series with HIV-IIIb, the inhibition at 2 µM was 0%.
The compound `NC(=O)c1cc(-c2cccnc2[C@H](Cc2cc(F)cc(F)c2)NC(=O)Cn2nc(C(F)F)cc2C2CC2)ccc1F` [Example 317, (S)-5-(2-(1-(2-(5-cyclopropyl-3-(difluoromethyl)-1H-pyrazol-1-yl)acetamido)-2-(3,5-difluorophenyl)ethyl)pyridin-3-yl)-2-fluorobenzamide] registered a CC50 at 5 days in the series “in vitro” above 47600 nM. Besides, the inhibition at 2 µM with HIV-IIIb is 41%.
For `NC(=O)c1cc(-c2cccnc2[C@H](Cc2cc(F)cc(F)c2)NC(=O)Cn2c(=O)[nH]c3ccccc32)ccc1F` [Example 318, (S)-5-(2-(2-(3,5-difluorophenyl)-1-(2-(2-oxo-2,3-dihydro-1H-benzo[d]imidazol-1-yl)acetamido)ethyl)pyridin-3-yl)-2-fluorobenzamide], in that order: above 53200 nM and 27%.
Compound `Cc1cc2nc(C(F)(F)F)n(CC(=O)N[C@@H](Cc3cc(F)cc(F)c3)c3ncccc3-c3ccc(F)c(C(N)=O)c3)c2cc1C` [Example 319, (S)-5-(2-(2-(3,5-difluorophenyl)-1-(2-(5,6-dimethyl-2-(trifluoromethyl)-1H-benzo[d]imidazol-1-yl)acetamido)ethyl)pyridin-3-yl)-2-fluorobenzamide] had a half-maximal cytotoxic concentration (CC50) at 5 days in the series “in vitro” above 52500 nM. Further, the inhibition at 2 µM in the series on HIV-IIIb was 70%.
For `Cc1cc2ncn(CC(=O)N[C@@H](Cc3cc(F)cc(F)c3)c3ncncc3-c3ccc(Cl)cc3)c2cc1C` [Example 320, (S)—N-(1-(5-(4-chlorophenyl)pyrimidin-4-yl)-2-(3,5-difluorophenyl)ethyl)-2-(5,6-dimethyl-1H-benzo[d]imidazol-1-yl)acetamide] the same measures were 12500 nM and 110%.
For `Cc1cc(=O)n(CC(=O)N[C@@H](Cc2cc(F)cc(F)c2)c2ncccc2-c2cccc(C(N)=O)c2)c2ccccc12` [Example 321, (S)-3-(2-(2-(3,5-difluorophenyl)-1-(2-(4-methyl-2-oxoquinolin-1(2H)-yl)acetamido)ethyl)pyridin-3-yl)benzamide] the same measures were 29700 nM and 30%.
For `NC(=O)c1cc(-c2cccnc2[C@H](Cc2cc(F)cc(F)c2)NC(=O)Cn2nc(C(F)(F)F)c3c2CC(=O)CC3)ccc1F` [Example 322, (S)-5-(2-(2-(3,5-difluorophenyl)-1-(2-(6-oxo-3-(trifluoromethyl)-4,5,6,7-tetrahydro-1H-indazol-1-yl)acetamido)ethyl)pyridin-3-yl)-2-fluorobenzamide], in that order: 37100 nM and 10%.
Compound `NC(=O)c1cc(-c2cccnc2[C@H](Cc2cc(F)cc(F)c2)NC(=O)Cn2cc(C(=O)O)c(C(F)(F)F)n2)ccc1F` [Example 323, (S)-1-(2-(1-(3-(3-carbamoyl-4-fluorophenyl)pyridin-2-yl)-2-(3,5-difluorophenyl)ethylamino)-2-oxoethyl)-3-(trifluoromethyl)-1H-pyrazole-4-carboxylic acid] gave a CC50 at 5 days in the series “in vitro” above 53200 nM. Also, in the series on HIV-IIIb, the inhibition at 2 µM is 0%.
For `CN1CCc2c(c(C(F)(F)F)nn2CC(=O)N[C@@H](Cc2cc(F)cc(F)c2)c2ncccc2-c2ccc(F)c(C(N)=O)c2)C1` [Example 324, (S)-5-(2-(2-(3,5-difluorophenyl)-1-(2-(5-methyl-3-(trifluoromethyl)-4,5,6,7-tetrahydro-1H-pyrazolo[4,3-c]pyridin-1-yl)acetamido)ethyl)pyridin-3-yl)-2-fluorobenzamide] the same measures were above 53200 nM and 31%.
For `NC(=O)c1cc(-c2cccnc2[C@H](Cc2cc(F)cc(F)c2)NC(=O)Cn2nc(C(F)(F)F)c3c2CC(O)CC3)ccc1F` (stereo partly drawn) [Example 325, 5-(2-((1S)-2-(3,5-difluorophenyl)-1-(2-(6-hydroxy-3-(trifluoromethyl)-4,5,6,7-tetrahydro-1H-indazol-1-yl)acetamido)ethyl)pyridin-3-yl)-2-fluorobenzamide] the same measures were 46100 nM and 86%.
For `NC(=O)c1cc(-c2cccnc2[C@H](Cc2cccc(F)c2)NC(=O)Cn2c(=O)[nH]c3ccccc32)ccc1F` [Example 326, (S)-2-fluoro-5-(2-(2-(3-fluorophenyl)-1-(2-(2-oxo-2,3-dihydro-1H-benzo[d]imidazol-1-yl)acetamido)ethyl)pyridin-3-yl)benzamide], in that order: above 53200 nM and 27%.
`NC(=O)c1cccc(-c2cncnc2[C@H](Cc2cc(F)cc(F)c2)NC(=O)Cc2c[nH]c3ccc(O)cc23)c1` [Example 327, (S)-3-(4-(2-(3,5-difluorophenyl)-1-(2-(5-hydroxy-1H-indol-3-yl)acetamido)ethyl)pyrimidin-5-yl)benzamide] yielded a CC50 at 5 days in the series “in vitro” above 53200 nM. Also, in the series on HIV-IIIb, the inhibition at 2 µM is 94%.
For `O=C(Cc1c[nH]c2ccc(F)cc12)NC(Cc1cc(F)cc(F)c1)c1nc[nH]c(=O)c1-c1ccc(Cl)cc1` (stereo not shown) [Example 328, N-(1-(5-(4-chlorophenyl)-6-oxo-1,6-dihydropyrimidin-4-yl)-2-(3,5-difluorophenyl)ethyl)-2-(5-fluoro-1H-indol-3-yl)acetamide] the same measures were 10000 nM and 0%.
For `CCOCc1cn(CC(=O)N[C@@H](Cc2cc(F)cc(F)c2)c2ncccc2-c2ccc(F)c(C(N)=O)c2)nc1C(F)(F)F` [Example 330, (S)-5-(2-(2-(3,5-difluorophenyl)-1-(2-(4-(ethoxymethyl)-3-(trifluoromethyl)-1H-pyrazol-1-yl)acetamido)ethyl)pyridin-3-yl)-2-fluorobenzamide], in that order: 29300 nM and 3%.
The compound `O=C(Cc1c[nH]c2ccc(=O)[nH]c12)N[C@@H](Cc1cc(F)cc(F)c1)c1ncncc1-c1ccc(Cl)cc1` [Example 331B, (S)—N-(1-(5-(4-chlorophenyl)pyrimidin-4-yl)-2-(3,5-difluorophenyl)ethyl)-2-(5-oxo-4,5-dihydro-1H-pyrrolo[3,2-b]pyridin-3-yl)acetamide] had a half-maximal cytotoxic concentration (CC50) at 5 days in “in vitro” of 43100 nM. Besides, the inhibition at 2 µM in the series with HIV-IIIb stood at 99%.
In the series “in vitro”, `NC(=O)c1cc(-c2cccnc2[C@H](Cc2cc(F)cc(F)c2)NC(=O)COc2ccnc(Cl)c2)ccc1F` [Example 332B, (S)-5-(2-(1-(2-(2-chloropyridin-4-yloxy)acetamido)-2-(3,5-difluorophenyl)ethyl)pyridin-3-yl)-2-fluorobenzamide] displayed a CC50 at 5 days of 40000 nM. In addition, the inhibition at 2 µM with HIV-IIIb came to 2%.
Take `CNCc1cn(CC(=O)N[C@@H](Cc2cc(F)cc(F)c2)c2ncccc2-c2ccc(F)c(C(N)=O)c2)nc1C(F)(F)F` [Example 333, (S)-5-(2-(2-(3,5-difluorophenyl)-1-(2-(4-((methylamino)methyl)-3-(trifluoromethyl)-1H-pyrazol-1-yl)acetamido)ethyl)pyridin-3-yl)-2-fluorobenzamide]: in “in vitro”, the half-maximal cytotoxic concentration (CC50) at 5 days was above 53200 nM. Moreover, the inhibition at 2 µM in the series on HIV-IIIb was found to be 2%.
The compound `NC(=O)c1cc(-c2cccnc2[C@H](Cc2cc(F)cc(F)c2)NC(=O)Cn2nc(C(F)F)c3c2C(F)(F)CCC3O)ccc1F` (stereo partly drawn) [Example 334, 5-(2-((1S)-1-(2-(3-(difluoromethyl)-7,7-difluoro-4-hydroxy-4,5,6,7-tetrahydro-1H-indazol-1-yl)acetamido)-2-(3,5-difluorophenyl)ethyl)pyridin-3-yl)-2-fluorobenzamide] came in with a CC50 at 5 days in the series “in vitro” of 26500 nM. Moreover, the inhibition at 2 µM in the series with HIV-IIIb was 63%.

(Values after patent publication US9540343B2 (Gilead Sciences, Inc., priority 2011, dated 2017).)
